Source: US20100047327A1, “Adjuvant for Transdermal or Transmucosal Administration and Pharmaceutical Preparation Containing the Same” (priority 2007, published 2010)

Assays:
[1] = system: MHC Class II molecule of the lymph cell; test: Expression of MHC Class II molecule of lymph cells by flow cytometry after transdermal administration of adjuvant; type: in vivo, BALB/c mouse; conditions: FIG. 1; for number of the lymph cells expressing an MHC Class II molecule: 50 μL of acetone solution (50%) applied transdermally to shaved abdomen, lymph node five days later
[2] = system: OVA specific IgG antibody; test: OVA specific IgG antibody titer by ELISA, intracutaneous OVA plus transdermal adjuvant; type: in vivo, BALB/c mouse; conditions: for Antibody titer (×10^4): OVA 10 μg/head intracutaneous, then 25 μL adjuvant applied transdermally, dosing at 0, 2, 4 weeks, data after five weeks; for immune response of the antigen IgG: intracutaneous OVA plus transdermal adjuvant on intact skin, in words
Experimental: OVA (an antigen: Ovalbumin, Sigma Company) was prepared by dissolving it in physiological saline to give 10 μg/head, and to the OVA alone group, 25 μL of OVA aqueous solution was administered intracutaneously. To the group in which various kinds of adjuvants (lauryl alcohol, oleyl alcohol, isostearyl alcohol, octyl dodecanol, polyethylene glycol monolaurate and Freund complete adjuvant (FCA)) were used in combination, immediately after OVA solution was administered intracutaneously, 25 μL of each adjuvant solution was administered (applied) transdermally on the abdominal skin surface. Administration was carried out 0, 2 and 4 weeks later, and blood collection was carried out 2, 4 and 5 weeks later, and OVA specific IgG antibody titer after 2, 4 and 5 weeks was measured by ELISA.

[3] = Skin irritation score, intracutaneous versus transdermal administration; type: in vivo, BALB/c mouse; design: Skin irritation score Intracutaneous administration: key to the marks not given beside the values; conditions: for Skin irritation score Transdermal administration: 50 μL of acetone solution (50%) applied transdermally
[4] = system: OVA specific IgG antibody; test: OVA specific IgG antibody titer, microneedle coated with antigen emulsion; type: in vivo, hairless rat; conditions: microneedle coated with emulsion antigen solution:oil or alcohol:Tween 80 1:1:0.01, OVA 2 mg/patch, two hours; FIG. 4
Experimental: OVA was prepared in the abdomen of the male hairless rat of seven to eight weeks old to give 2 mg/patch, and in the microneedle (OVA+5% polyvinyl alcohol) group, the needle part of the microneedle was coated with an antigen and 5% polyvinyl alcohol liquid [mixed in antigen solution:10% polyvinyl alcohol=1:1], and punctured for two hours. In addition, in microneedle (OVA+olive oil) or (OVA+lauryl alcohol) group, emulsion [antigen solution:olive oil or lauryl alcohol:surfactant (Tween 80)=1:1:0.01] was coated on the needle of the microneedle and punctured it for two hours. Administration was carried out 0, 2 and 4 weeks later, and blood collection was carried out 2, 4 and 5 weeks later, and OVA specific IgG antibody titers were measured by ELISA.

[5] = system: OVA specific IgG antibody; test: OVA specific IgG antibody titer, antigen-coated microneedle after lauryl alcohol applied to skin; type: in vivo, hairless rat; conditions: LA applied to skin before puncture with OVA-coated microneedle (2 mg/patch, two hours); FIG. 3
Experimental: OVA was prepared in the abdomen of the male hairless rat of seven to eight weeks old to give 2 mg/patch, and in the microneedle group, the needle part of the microneedle was coated with an antigen and 5% polyvinyl alcohol liquid, and physiological saline was dropped on the skin side, and punctured for two hours. In addition, in microneedle+lauryl alcohol group, lauryl alcohol was applied to skin beforehand, physiological saline was dropped on the skin side, and the needle of the microneedle coated with the above-described antigen and 5% polyvinyl alcohol liquid was punctured for two hours. Administration was carried out 0, 2 and 4 weeks later, and blood collection was carried out 2, 4 and 5 weeks later, and OVA specific IgG antibody titers were measured by ELISA.

influenza H3N2 = test: Antibody titer after transnasal administration of influenza H3N2 antigen plus LA; conditions: influenza H3N2 1 μg/head, antigen solution:LA:Tween 80 9:1:0.05; FIG. 6
Experimental: To a male BALB/c mouse of seven to eight weeks old, under inhalation anesthesia (Sevofrane) with matching with breathing, 50 μL of antigen (influenza H3N2 (Biogenesis company): 1 μg/head) was administered to a nose by dripping (transnasal (antigen)). The antigen+LA, [mixed in antigen solution:LA:surfactant (Tween 80)=9:1:0.05] was administered to a nose by dripping (transnasal (antigen+LA)).
In addition, in the intracutaneous treatment group, the abdomen was shaved under Nembutal anesthesia, 50 mL of antigen (influenza H3N2: 0.07 μg/head) was administered intracutaneously (intracutaneous (antigen)). The antigen+LA, [mixed in antigen solution:LA:surfactant (Tween 80)=1:1:0.01] was administered intracutaneously (intracutaneous (antigen+LA)). Boost was made in the same condition 2 and 4 weeks after the first time administration, and blood was collected from fundus after 2, 4 and 5 weeks and antibody titers were measured.

[6] = system: OVA specific IgG antibody; test: OVA specific IgG antibody titer by ELISA, OVA/LA emulsion with microneedle, skin abrading or iontophoresis; type: in vivo, BALB/c mouse; conditions: FIG. 2
Experimental: OVA was prepared to give 100 μg/head, and to the OVA alone group, OVA aqueous solution was applied, and in the group in which lauryl alcohol (LA) was used in combination, the solution in which OVA solution, LA and Tween 20 (emulsifier) was mixed in the ratio of 1:1:0.01 which was emulsified was prepared and used. In the microneedle application group, 1 cm^2 of a microneedle (needle length: about 200 μm, 400 needles/cm^2) was punctured to abdominal skin that had been shaved beforehand, thereafter 50 μL of the above-mentioned emulsion solution was applied immediately. In addition, in skin abrading treatment group, skin was abraded five times using 3M RED Dot™ 2236 instead of a microneedle, thereafter 50 μL of the emulsion solution was applied. In iontophoresis application group, 50 μL of the emulsion solution was applied to shaved abdominal skin, thereafter an iontophoresis preparation (a non-woven fabric preparation: Ag, Ag/AgCl 1 cm^2) in which physiological saline was impregnated to the non-woven fabric was affixed in the applied part, and a direct current (0.4 mA/patch) was applied for one hour. Administration was carried out 0, 2 and 4 weeks later, and blood collection was carried out 2, 4 and 5 weeks later, and OVA specific IgG antibody titers were measured by ELISA.

[7] = system: OVA specific IgG antibody; test: OVA specific IgG antibody titer, microneedle coated with antigen emulsion; type: in vivo, BALB/c mouse; conditions: microneedle coated with emulsion antigen solution:alcohol:Tween 80 1:1:0.01, OVA 0.1 mg/patch, two hours; FIG. 5
Experimental: In addition, in microneedle (OVA+lauryl alcohol or OVA+oleyl alcohol) group, emulsion [antigen solution:lauryl alcohol or oleyl alcohol:surfactant (Tween 80)=1:1:0.01] was coated on the needle of the microneedle and punctured it for two hours. Administration was carried out 0, 2 and 4 weeks later, and blood collection was carried out 2, 4 and 5 weeks later, and OVA specific IgG antibody titers were measured by ELISA.

OVA = test: Antibody titer after oral mucosal administration of OVA plus LA emulsion; type: in vivo, BALB/c mouse; conditions: OVA 2500 μg/head, LA groups (20) and (50), boost after one week, blood after two weeks; FIG. 7

| Molecule | number of the lymph cells expressing an MHC Class II molecule [1] | Antibody titer (×10^4) [2] | Skin irritation score Transdermal administration [3] | also measured |
| --- | --- | --- | --- | --- |
| CC(C)CCCCCCCCCCCCCCCO [Isostearyl alcohol, isostearyl alcohol] | remarkable increase | 1.3 ×10^4 | not detected |  |
| CCCCCCCCCCCCO [Lauryl alcohol, lauryl alcohol] | remarkable increase | 2.1 ×10^4 | not detected | OVA specific IgG antibody titer [4]: remarkably increased; OVA specific IgG antibody titer [5]: remarkably increased; adjuvant effect (MHC Class II expression), comparison among adjuvants ([1]; transdermal administration): most remarkable; antibody titer, transnasal (antigen+LA) versus antigen alone (influenza H3N2): increase of the antibody titer was observed; antigen specific IgG, iontophoresis (IP+LA) ([6]; OVA 100 μg/head, OVA:LA:Tween 20 1:1:0.01 emulsion, 0.4 mA/patch for one hour, four weeks later): highest immune response; antigen specific IgG, skin abrading pre-treatment (abrading+LA) ([6]; OVA 100 μg/head, emulsion applied after abrading, four weeks later): high immune response; antigen specific IgG, microneedle (microneedle+LA) ([6]; OVA 100 μg/head, emulsion applied after microneedle puncture, four weeks later): high immune response; antibody titer compared to antigen administered alone ([6]; lauryl alcohol used together with OVA): significant increase; OVA specific IgG antibody titer [7]: remarkably increased; antibody titer, oral mucosal administration (OVA): increase of the antibody titer was observed depending on the LA concentration; immune response of the antigen IgG [2]: highest immune response |
| CCCCCCCCCCC(CO)CCCCCCCC (stereo not drawn) [Octyl dodecanol, octyl dodecanol] |  | 0.6 ×10^4 | not detected |  |
| CCCCCCCC/C=C\CCCCCCCCO [Oleyl alcohol, oleyl alcohol] | remarkable increase | 2.1 ×10^4 |  | OVA specific IgG antibody titer [7]: remarkably increased; immune response of the antigen IgG [2]: highest immune response; Skin irritation score Intracutaneous administration ([3]; mouse, in vivo): +++ |
| CCCCCCCC/C=C\CCCCCCCC(=O)O [oleic acid] | remarkable increase |  |  |  |
| polyethylene glycol monolaurate |  | 0.9 ×10^4 | not detected |  |
| sorbitan monolaurate | remarkable increase |  | not detected |  |
| sorbitan monooleate | remarkable increase |  |  |  |
